“And” between values parts separate entries of the source, which are not always exact repeats. Equal entries are not always repeated.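 All cell lines were grown in 96-well plates and treated with compound for 48 hours. GI50 marks 50% less growth. At the TGI there is no net growth.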 Where a SMILES comes first, the peptide text is derived from it. [ ]: non-standard residue; d: D form. Orn = NCCC[CH](N)C(=O)O
What was measured:
Assay in all cases: NCI tumour cell line growth inhibition, 48 h
HL-60(TB) leukemia = system: HL-60(TB) leukemia
HS 578T breast = system: HS 578T breast
KM12 colon = system: KM12 colon
MCF7 breast = system: MCF7 breast
MDA-MB-435 = system: MDA-MB-435
NCI-H23 lung = system: NCI-H23 lung
SF-539 CNS = system: SF-539 CNS
SK-MEL-2 melanoma = system: SK-MEL-2 melanoma
SK-OV-3 ovarian = system: SK-OV-3 ovarian
SNB-75 CNS = system: SNB-75 CNS

Structure (SMILES)	GI50 (HL-60(TB) leukemia)	TGI (HL-60(TB) leukemia)	GI50 (HS 578T breast)	TGI (HS 578T breast)	GI50 (KM12 colon) [µM]	TGI (KM12 colon)	GI50 (MCF7 breast) [µM]	TGI (MCF7 breast)	GI50 (MDA-MB-435) [µM]	TGI (MDA-MB-435)	GI50 (NCI-H23 lung)	TGI (NCI-H23 lung)	GI50 (SF-539 CNS)	TGI (SF-539 CNS)	GI50 (SK-MEL-2 melanoma)	TGI (SK-MEL-2 melanoma)	GI50 (SK-OV-3 ovarian) [µM]	TGI (SK-OV-3 ovarian)	GI50 (SNB-75 CNS) [µM]	TGI (SNB-75 CNS)
Cc1cc(Cl)ccc1Nc1nc(C(F)(F)F)ccc1C(=O)N/N=C/c1c(Cl)cccc1Cl	0.229 µM	0.53 µM	0.63 µM	> 30 µM	0.254	1.92 µM	0.233	0.749 µM	0.357	> 100 µM	0.489 µM	> 100 µM	0.638 µM	4.07 µM	0.272 µM	1.33 µM	0.486	3.29 µM	1.34	> 100 µM
Cc1cc(Cl)ccc1Nc1nc(C(F)(F)F)ccc1C(=O)N/N=C/c1ccc(F)cc1	1.77 µM	5.01 µM	2.23 µM	11.7 µM	1.99	5.33 µM	2.64	10.5 µM	2.78	11 µM	2.57 µM	11.5 µM	1.96 µM	5.67 µM	1.84 µM	5.82 µM	1.34	6.58 µM	1.55	9.45 µM
O=C(Nc1ncc(Cc2ccc(Cl)cc2)s1)c1ccc2c(c1)OCCO2	0.0537 µM	–	0.0422 µM	8.65 µM	0.0414	> 58 µM	0.0661	> 100 µM	0.0197	0.0459 µM	0.298 µM	> 100 µM	0.0469 µM	0.571 µM	0.343 µM	> 69.4 µM	0.183	92.9 µM	0.0266	3.4 µM
Nc1nn(C(=O)Nc2ccc(Cc3ccccc3)cc2)c2ccccc12	0.466 µM	15.2 µM	17.2 µM	71.8 µM	2.94	> 100 µM	0.555	8.82 µM	2.82	> 100 µM	16.8 µM	83.5 µM	0.495 µM	5.36 µM	36.4 µM	> 100 µM	36.9	> 100 µM	17	47.4 µM
CC(C)CC1NC(=O)C(CCCN)NC(=O)C(C(C)C)NC(=O)C2CCCN2C(=O)C(Cc2ccccc2)NC(=O)C(CC(C)C)NC(=O)C(CCCN)NC(=O)C(C(C)C)NC(=O)C2CCCN2C(=O)C(Cc2ccccc2)NC1=O (configuration not stated) (cyclo(FPV[Orn]LFPV[Orn]L); configuration not given here)	0.0151 µM and 0.0371 µM	0.104 µM and 0.251 µM	0.0166 µM and 0.0453 µM	0.784 µM and 1.64 µM	0.00513	0.363 µM and 1.04 µM	0.0109	0.373 µM and 0.102 µM	0.00425	0.371 µM and 1.21 µM	0.00835 µM and 0.0192 µM	0.101 µM and 0.175 µM	0.0146 µM and 0.0477 µM	0.421 µM and 1.05 µM	0.00939 µM and 0.0243 µM	0.0404 µM and 0.0891 µM	0.0108	0.505 µM and 1.39 µM	0.0103	0.149 µM and 0.0637 µM
COc1ccc2c(c1)CC[C@@H]1[C@@H]2CC[C@]2(C)c3c(cc(C(=O)c4ccccc4)c4sccc34)C[C@@H]12	6.73 µM	> 100 µM	> 100 µM	> 100 µM	> 100	> 100 µM	> 100	> 100 µM	> 100	> 100 µM	> 100 µM	> 100 µM	> 100 µM	> 100 µM	> 100 µM	> 100 µM	> 100	> 100 µM	22.8	> 100 µM
COc1ccc(OC)c(/C=C/c2cnnc3ccccc23)c1	–	> 10 µM	–	7.76 µM	–	> 10 µM	–	> 10 µM	–	2.01 µM	–	> 10 µM	–	8.62 µM	–	6.43 µM	–	> 10 µM	–	> 10 µM
O=C(Nc1cccc(-n2cc(-c3ccncc3)c(-c3ccc(O)c(Cl)c3)n2)c1)Nc1ccc(Cl)c(C(F)(F)F)c1	2.55 µM	6.38 µM	1.3 µM	6.24 µM	1.61	3.26 µM	1.8	4.34 µM	1.98	4.88 µM	2.1 µM	6.5 µM	1.76 µM	5.99 µM	2.14 µM	4.28 µM	3.14	9.82 µM	1.23	6.85 µM
CCCNNC(=O)c1ccc(CNC(=O)/C=C/c2ccccc2)cc1	0.219 µM	> 100 µM	0.207 µM	> 20.8 µM	0.232	5.05 µM	0.216	> 100 µM	0.2	–	0.228 µM	> 23.5 µM	0.191 µM	> 100 µM	0.199 µM	–	0.134	1.47 µM	0.311	> 23.5 µM
CCNCCNc1cc(C2CCCC2)c(C#N)c2nc3ccccc3n12	2.01 µM	4.3 µM	3.23 µM	10.4 µM	4.64	16.6 µM	2.58	13.7 µM	2.62	7.62 µM	7.42 µM	24.3 µM	1.67 µM	3.25 µM	3.91 µM	16.1 µM	3.26	12.5 µM	1.63	4.02 µM
Cc1ccc(S(=O)(=O)C2=C3C(=C(c4ccccc4)c4ccccc43)CN(S(=O)(=O)c3ccc(C)cc3)C2)cc1	11.2 µM	> 100 µM	2.57 µM	39.9 µM	5.87	> 100 µM	2.43	> 100 µM	3.76	17.9 µM	3.36 µM	23.7 µM	10.9 µM	49 µM	6.1 µM	30.3 µM	> 100	> 100 µM	2.92	31.6 µM
COc1ccc2oc(-c3ccc(Cl)cc3)c(N3CCN(C)CC3)c2c1	2.64 µM	> 20 µM	1.71 µM	3.86 µM	1.64	3.27 µM	1.7	3.5 µM	1.83	4.06 µM	2.88 µM	8.99 µM	1.78 µM	3.37 µM	1.8 µM	4.4 µM	2.17	4.99 µM	1.48	4.01 µM
COC1(C)Cc2c(c(C)c(O)c3c2C(=O)C=C(Cl)C3=O)O1 (configuration not stated)	–	14.8 µM	–	> 100 µM	–	> 100 µM	–	> 100 µM	–	> 100 µM	–	> 100 µM	–	> 100 µM	–	> 100 µM	–	> 100 µM	–	> 100 µM
CC(=O)/C=C/c1ccc(N(C)Cc2ccc(C(C)(C)C)cc2)cc1	69.1 µM	277 µM	193 µM	568 µM	115	317 µM	45.5	318 µM	114	322 µM	87.4 µM	550 µM	161 µM	316 µM	164 µM	344 µM	217	709 µM	145	345 µM
CCOC(=O)c1c2c(n3cccc(F)c13)C(=O)c1ncccc1C2=O	1.03 µM	3.69 µM	0.0362 µM	25.6 µM	0.539	18.9 µM	0.0572	1.27 µM	0.541	10.7 µM	0.173 µM	3.09 µM	0.157 µM	1.35 µM	4.81 µM	73.7 µM	0.223	16.3 µM	1.72	64.9 µM
